Here are results for two sequences from EP0400227A1, “Natriuretic peptides” (Acticor, Inc., priority 1989, dated 1990).

In the test the test system is rats. The test can be described thus: Natriuretic and diuretic effect of intravenous bolus injection in anesthetized rats. It counts as in vivo, male Sprague-Dawley or Long-Evans rats. As to conditions: 30 to 60 minutes after minus 30 to 0 minutes before injection, mean ± SEM. Here is the method: Diuretic and natriuretic activity of the peptides of this invention is assayed in male rats of the Sprague-Dawley or Long-Evans strains. Peptide or vehicle (for control purposes) is administered by intravenous bolus injection or by continuous infusion into one […] of animals anesthetized for the duration of the experiment, or by intramuscular or subcutaneous injection into animals only briefly anesthetized with ether and subsequently conscious and freely moving until completion of the experiment. Timed urine samples are collected for determination of volume and measurement of sodium and potassium concentration by flame photometry. Details of each method are given in Examples II to IV below.
The natriuretic and diuretic effect of intravenous bolus injection of peptides F15R, G13R and E19R was tested in male Sprague-Dawley or Long-Evans rats weighing 300-400 g. The animals were given Inactin®, 120 mg per kg body weight i.p. under light ether anesthesia. Following placement of a tracheal cannula, the right femoral vein was catheterized for infusion of 5% bovine serum albumin at a dose of 0.4% of body weight and at a rate of 6.0 ml/hour. Subsequently, normal saline was infused for the duration of the experiment at a rate of 2.0 ml/hour. The bladder was exposed through an abdominal incision and catheterized for urine collection. Serial 15-minute urine collections in preweighed vials were begun after a recovery period of 45 minutes. After collection of four control samples, the peptide in 0.1 ml of vehicle was injected into the femoral vein over a period of 1 minute and 6 to 10 further urine samples were collected. Urine volume was determined by weighing and urine sodium and potassium were assayed by flame photometry. All peptides produced natriuresis and diuresis reaching peak levels usually between 30 and 60 minutes after injection. The difference between urine volume and sodium excretion observed from 30 to 60 minutes after and 30 to 0 minutes before peptide administration was calculated for each rat as a measure of activity.

Where [1] appears, read: i.v. 0.100 nmol (0.10 nmol for G13R).

Ends that are not written are not given here.

For the sequence ETPMFPGNGDEQPLTENP [E19R], for the setting “i.v. 0.025 nmol”, the “Change in Sodium Excretion” value was determined as 6.50 ± 3.60 µeq/30 minutes and the “Change in Urine Volume” value was found to be 89.0 ± 43.6 µl/30 minutes. Under setting [1], the “Change in Sodium Excretion” value is on record as 12.07 ± 5.08 µeq/30 minutes and the “Change in Urine Volume” value amounted to 104.2 ± 58.0 µl/30 minutes.
Turning to GNGDEQPLTPNPR [G13R], the “Change in Sodium Excretion” value is on record as 8.39 ± 4.41 µeq/30 minutes under setting [1] and 12.48 ± 6.22 µeq/30 minutes (i.v. 1.00 nmol). Besides, the “Change in Urine Volume” value under setting [1] was found to be 80.0 ± 29.2 µl/30 minutes and the “Change in Urine Volume” value (i.v. 1.00 nmol) stood at 62.0 ± 17.2 µl/30 minutes.
